# According to patent publication US20220023337A1, “USE OF CHROMIUM HISTIDINATE FOR TREATMENT OF CARDIOMETABOLIC DISORDERS” (NUTRITION 21, LLC, priority 2007, published 2022):
# Read-outs that look alike come from different tables or passages of the source.
# What was measured:
# diabetic rats = test: Glucose and lipid metabolism in high fat diet/streptozotocin diabetic rats (groups 5 and 6); type: in vivo, Wistar rats; settings: high-fat diet + STZ 40 mg/kg i.p. rats, 110-mcg/kg body.d in water, 10 weeks
# Method: (§1) Wistar rats were reared at the temperature of (22±2° C.), humidity (55±5%) and a 12/12 h light/dark cycle. Pellet food and water were provided ad libitum.
# (§2) Fat-fed/STZ treated rats provide an animal model for type 2 diabetes that simulates the human syndrome, and is suitable for the testing of antidiabetic compounds (See, e.g., Reed et al. (2000) Metabolism 49(11):1390-1394). Rats fed a high fat diet can be used as a model system for insulin resistance. Ten Wistar rats (55 days old) in each group were treated as follows:
# Group 5: Rats were fed high-fat diet (40% of calories as fat) for 2 weeks and then injected with streptozotocin (STZ, 40 mg/kg i.p.) for 12 weeks.
# Group 6: Rats were fed high-fat diet (40% of calories as fat) for 2 weeks and then injected with streptozotocin (STZ, 40 mg/kg i.p.) and chromium histidinate was included into water at a concentration of 110-mcg/kg body.d for 10 weeks.
# Before STZ injection glucose concentrations of rats were measured and compared to controls.
# [1] = system: subject with a PPAR associated disorder; test: Example 13: treatment of PPAR disorders; type: in vivo; settings: about 50-5000 μg, orally, daily
# Method: A subject is identified with a PPAR associated disorder. The subject has one or more of the following symptoms or conditions: rheumatoid arthritis, multiple sclerosis, inflammatory bowel disease, breast, colon, or prostate cancer, low levels of blood, lymph and/or cerebrospinal fluid apoE and/or apo A-1, elevated serum VLDL cholesterol levels, elevated serum LDL cholesterol levels, elevated triglyceride levels, elevated serum apo B levels, or the like. The subject is administered between about 50 μg and 5000 μg chromium histidinate, orally, daily. After a period of time, the subject's symptoms improve.
# [2] = system: subject having a dyslipidemia; test: Example 14: treatment of dyslipidemia; type: in vivo; settings: about 50-5000 μg daily, orally; one or more of the listed changes
# Method: A subject is identified as having a dyslipidemia. […] The subject is administered between about 50 μg and 5000 μg chromium histidinate daily, orally.
# Hep G2 cells [3] = test: Triglyceride secretion into culture media by HepG2 cells; type: cell-based, human; settings: 0.2 μM, in the presence of insulin; p<0.05 vs control
# Method: (§3) Hep G2 cells are liver cells derived from a human hepatoblastoma that is free of known hepatotropic viral agents. This cell line expresses a wide variety of liver-specific metabolic functions and is used as a model system to study cholesterol and triglyceride metabolism. The effects of chromium histidinate on triglyceride secretion and on media glucose levels, the HepG2 cell line was grown in culture media with or without insulin in the presence of 0, 0.2, 2, or 20 μM chromium histidinate. Media glucose levels and triglyceride levels were measured using standard protocols. Specifically, triglyceride levels were measured spectrophotometrically through hydrolysis by lipase and coupled enzyme reactions on the resulting glycerol. Glucose levels were measured spectrophotometrically using the glucose oxidase method, with a standard dilution curve serving to calibrate the measurements.
# [4] = system: subject with cardiovascular disease; test: Example 8: treatment of cardiovascular disease; type: in vivo; settings: about 50-5000 μg daily
# Method: (§4) A subject is identified with cardiovascular disease. […] The subject is provided between about 50 μg and 5000 μg chromium histidinate daily. After a period of time, the subject's arteriosclerosis, atherosclerosis, peripheral vascular disease, or coronary heart disease improves.
# [5] = system: subject with cardiovascular disease; test: Example 9: treatment of cardiovascular disease with combination therapy; type: in vivo; settings: about 50-5000 μg daily plus a second therapeutic for cardiovascular disease
# Method: as §4, with “daily. The subject is also provided a therapeutically effective amount of a second therapeutic for cardiovascular disease such as peripheral antiadrenergic therapy, antihypertensive drugs, vasodilators, inodilators, cardiac glycosides, antidysrhythmic drugs.” for “daily.”
# normal rats = test: Glucose and lipid metabolism in normal rats fed standard diet (groups 1 and 2); settings: standard diet + chromium histidinate 12 weeks
# Method: as §1, §2
# Group 1: Control rats were fed standard diet (12% of calories as fat) for 12 weeks.
# Group 2: Control rats were fed standard diet+chromium histidinate for 12 weeks.
# [6] = system: subject having cardiometabolic syndrome; test: Example 3: treatment of cardiometabolic syndrome; type: in vivo; settings: between 50 μg and 5000 μg/day, orally
# Method: A subject is identified as having cardiometabolic syndrome. The subject presents with one or more symptoms associated with cardiometabolic syndrome such as obesity, hypertension, dyslipidemia, impaired glucose tolerance, diabetes, an increase in C-reactive protein, and increase in TNFα, an increase in IL-6, an increase in IL-10, or an increase in oxidative stress.
# The individual is administered between 50 μg and 5000 μg chromium histidinate complex/day, orally. The chromium histidinate is administered orally.
# Hep G2 cells [7] = test: Media glucose levels of HepG2 cell cultures; type: cell-based, human; settings: 0.2 μM, in the absence of insulin; p<0.05 vs control
# Method: as §3
# insulin resistant rats = test: Glucose and lipid metabolism in insulin resistant rats fed high fat diet (groups 3 and 4); type: in vivo, Wistar rats; settings: approx. 110 mcg/kg body.d in water, 12 weeks
# Method: as §1, §2
# Group 3: Rats were fed high fat diet (40% of calories as fat) for 12 weeks.
# Group 4: Rats were fed high-fat diet (40% of calories as fat) and chromium histidinate (approx. 110 mcg/kg body.d) was included into water for 12 weeks.
# [8] = system: subject with compromised renal function; test: Example 10: treatment of renal disorders; type: in vivo; settings: between 50 μg and 5000 μg daily
# Method: A subject is identified with compromised renal function. […] The subject is administered an effective amount of chromium trihistidinate daily, e.g. between 50 μg and 5000 μg chromium trihistidinate daily. After a period of time, the subject's renal function improves.
# subject having impotence = test: Example 6: treatment of sexual dysfunction; type: in vivo; settings: about 50-5000 μg daily, orally
# Method: A subject is identified as having impotence. The subject is orally administered between about 50 μg and 5000 μg chromium trihistidinate daily.
# rats = settings: cited from earlier work
# [9] = system: subject having insulin resistance; test: Example 5: treatment of insulin resistance; type: in vivo; settings: about 50-5000 μg daily, orally, in the form of a bar
# Method: A subject is identified as having insulin resistance. […] The subject is administered between about 50 μg and 5000 μg chromium polyhistidinate daily, orally, in the form of a bar.
# [10] = system: subject with diabetes or hyperglycemia; test: Example 11: treatment of glucose metabolism disorders; type: in vivo; settings: about 50-5000 μg daily, orally
# Method: A subject is identified with one or more glucose metabolism disorders such as diabetes or hyperglycemia. The subject is orally administered between about 50 μg and 5000 μg chromium polyhistidinate daily.
# [11] = rats, NSAID co-administered; cited from earlier work
# [12] = cited from earlier work
compound,measurement,setting,value
chromium histidinate,body weight,diabetic rats,significantly lowers
same,cortisol levels,diabetic rats,decreases
same,free fatty acid levels,diabetic rats,decreases
same,insulin levels,diabetic rats,increases
same,insulin sensitivity,diabetic rats,increases
same,serum glucose levels,diabetic rats,lowers
same,total serum cholesterol levels,diabetic rats,decreases
same,triglyceride levels,diabetic rats,decreases
same,symptoms of PPAR associated disorder,[1],improve
same,serum HDL cholesterol levels,[2],increased
same,serum LDL cholesterol levels,[2],decreased
same,serum triglyceride levels,[2],decreased
same,total serum cholesterol levels,[2],decreased
same,triacylglycerol (triglycerides secreted into culture media),Hep G2 cells [3],significantly decreased
same,"arteriosclerosis, atherosclerosis, peripheral vascular disease, or coronary heart disease",[4],improves
same,"arteriosclerosis, atherosclerosis, peripheral vascular disease, or coronary heart disease",[5],improves
same,free fatty acid levels,normal rats,decreases
same,insulin levels,normal rats,increases
same,insulin sensitivity,normal rats,increases
same,serum chromium levels,normal rats,increases
same,serum glucose levels,normal rats,lowers
same,serum triglyceride levels,normal rats,decreases
same,total serum cholesterol levels,normal rats,decreases
same,symptoms associated with cardiometabolic syndrome,[6],reduction in one or more of the symptoms
same,glucose in the media,Hep G2 cells [7],significant decrease
same,body weight,insulin resistant rats,significantly lowers
same,cortisol levels,insulin resistant rats,decreases
same,free fatty acid levels,insulin resistant rats,decreases
same,insulin levels,insulin resistant rats,increases
same,insulin sensitivity,insulin resistant rats,increases
same,serum glucose levels,insulin resistant rats,lowers
same,total serum cholesterol levels,insulin resistant rats,decreases
same,triglyceride levels,insulin resistant rats,decreases
chromium trihistidinate,renal function,[8],improves
same,sexual function,subject having impotence,improved
[Cl][Cr]([Cl])[Cl] [chromium chloride],toxic effects,"rats; rats, levels several thousand times the upper limit of the ESADDI for chromium for humans (based on body weight)",without toxic effects
chromium polyhistidinate,hyperinsulinemia,[9],decreased
same,insulin function,[9],improved
same,fasting and/or post-prandial glucose levels,[10],improvement
CC(=O)Oc1ccccc1C(=O)O [aspirin],chromium absorption following oral administration of CrCl3,[11],facilitated
N[C@@H](Cc1c[nH]cn1)C(=O)O [histidine],pKa,[12],~6.0
chromium picolinate,toxic effects,"rats; rat, in vivo",without toxic effects
